Assay results from ChEMBL document CHEMBL2086371, “4-quinolones as noncovalent inhibitors of high molecular mass penicillin-binding proteins” (ACS Med Chem Lett, 2012).
Activity calls are given as the source filed them. No cut-off for these calls is given here.

Assays:
[1] = tested on: Escherichia coli; test: Antibacterial activity against Escherichia coli MM 294 after 20 hrs by tube dilution method; type: functional; settings: MM 294, 20 h
[2] = tested on: Bacillus subtilis; test: Inhibition of bocillin FL binding to Bacillus subtilis PBP1 at 1 mM by gel electrophoresis
[3] = tested on: Escherichia coli; test: Inhibition of bocillin FL binding to Escherichia coli MM 294 PBP by whole-cell assay
[4] = Inhibition of bocillin FL binding to PBP 1a/1b in Escherichia coli MM 294 membrane preparation by gel electrophoresis; type: cell membranes
[5] = tested on: Bacillus subtilis; test: Inhibition of bocillin FL binding to Bacillus subtilis PBP3/4 at 1 mM by gel electrophoresis
[6] = tested on: Bacillus subtilis; test: Antibacterial activity against Bacillus subtilis after 20 hrs by tube dilution method; type: functional, organism-based
[7] = Inhibition of bocillin FL binding to PBP 4 in Escherichia coli MM 294 membrane preparation by gel electrophoresis; type: cell membranes
[8] = tested on: Bacillus subtilis; test: Inhibition of bocillin FL binding to Bacillus subtilis PBP5 at 1 mM by gel electrophoresis
[9] = Inhibition of bocillin FL binding to PBP 2 in Escherichia coli MM 294 membrane preparation by gel electrophoresis; type: cell membranes
[10] = Inhibition of bocillin FL binding to PBP 3 in Escherichia coli MM 294 membrane preparation by gel electrophoresis; type: cell membranes
[11] = tested on: Bacillus subtilis; test: Inhibition of bocillin FL binding to Bacillus subtilis PBP2 at 1 mM by gel electrophoresis
[12] = Inhibition of bocillin FL binding to PBP 5/6 in Escherichia coli MM 294 membrane preparation by gel electrophoresis; type: cell membranes
[13] = tested on: Escherichia coli; test: Inhibition of bocillin FL binding to PBP 5/6 in Escherichia coli MM 294 membrane preparation at 1 mM by gel electrophoresis; type: cell membranes
[14] = tested on: Escherichia coli; test: Inhibition of bocillin FL binding to PBP 1a/1b in Escherichia coli MM 294 membrane preparation at 1 mM by gel electrophoresis; type: cell membranes
[15] = tested on: Escherichia coli; test: Inhibition of bocillin FL binding to PBP 2 in Escherichia coli MM 294 membrane preparation at 1 mM by gel electrophoresis; type: cell membranes
[16] = tested on: Escherichia coli; test: Inhibition of bocillin FL binding to PBP 4 in Escherichia coli MM 294 membrane preparation at 1 mM by gel electrophoresis; type: cell membranes
[17] = tested on: Escherichia coli; test: Inhibition of bocillin FL binding to PBP 3 in Escherichia coli MM 294 membrane preparation at 1 mM by gel electrophoresis; type: cell membranes
[18] = Inhibition of bocillin FL binding to Escherichia coli MM 294 PBP2 by cell-free assay
[19] = tested on: Escherichia coli; test: Inhibition of bocillin FL binding to Escherichia coli MM 294 PBP 5/6 by cell-free assay

SMILES: O=c1cc(CCO)[nH]c2ccccc12
- MIC [1]: > 1000 µM
- inhibition [2]: Active
- inhibition [3]: inactive
- Ki [4]: 37 µM
- inhibition [5]: Active
- Activity [6]: inactive
- Ki [7]: 7 µM
- inhibition [8]: Active
- Ki [9]: 26 µM
- Ki [10]: 120 µM
- inhibition [11]: Active
- Ki [12]: 520 µM

SMILES: O=C(O)c1cc(=O)c2ccccc2[nH]1 [TRANSTORINE]
- MIC [1]: > 1000 µM
- inhibition [2]: Active
- inhibition [3]: inactive
- Ki [4]: 470 µM
- inhibition [5]: Active
- inhibition [13]: inactive
- Activity [6]: inactive
- Ki [7]: 37 µM
- inhibition [8]: Active
- Ki [9]: 210 µM
- Ki [10]: 950 µM
- inhibition [11]: Active

SMILES: O=c1c(CCO)c[nH]c2ccccc12
- MIC [1]: > 1000 µM
- inhibition [2]: Active
- inhibition [3]: inactive
- Ki [4]: 38 µM
- inhibition [5]: Active
- inhibition [13]: inactive
- Activity [6]: inactive
- Ki [7]: 3.1 µM
- inhibition [8]: Active
- Ki [9]: 27 µM
- Ki [10]: 70 µM
- inhibition [11]: Active

SMILES: Oc1cccc2nccc(O)c12
- MIC [1]: > 1000 µM
- inhibition [2]: Active
- inhibition [14]: inactive
- inhibition [3]: inactive
- inhibition [5]: Active
- inhibition [13]: inactive
- Activity [6]: inactive
- inhibition [15]: inactive
- inhibition [16]: inactive
- inhibition [8]: Active
- inhibition [11]: Active
- inhibition [17]: inactive

SMILES: O=C(O)Cc1c[nH]c2ccccc2c1=O
- MIC [1]: > 1000 µM
- inhibition [2]: Active
- inhibition [3]: inactive
- Ki [4]: 300 µM
- inhibition [5]: Active
- inhibition [13]: inactive
- Activity [6]: inactive
- Ki [7]: 29 µM
- inhibition [8]: Active
- Ki [9]: 250 µM
- inhibition [11]: Active
- inhibition [17]: inactive

SMILES: O=c1cc(CO)[nH]c2ccccc12
- MIC [1]: > 1000 µM
- inhibition [2]: Active
- inhibition [3]: inactive
- Ki [4]: 27 µM
- inhibition [5]: Active
- Activity [6]: inactive
- Ki [18]: 64 µM
- Ki [7]: 4.8 µM
- inhibition [8]: Active
- Ki [9]: 26 µM
- inhibition [19]: inactive
- Ki [10]: 27 µM
- inhibition [11]: Active
- Ki [12]: 220 µM

SMILES: O=c1cc(CCCO)[nH]c2ccccc12
- MIC [1]: > 1000 µM
- inhibition [2]: Active
- inhibition [3]: inactive
- Ki [4]: 49 µM
- inhibition [5]: Active
- inhibition [13]: inactive
- Activity [6]: inactive
- Ki [7]: 6.1 µM
- inhibition [8]: Active
- Ki [9]: 50 µM
- Ki [10]: 120 µM
- inhibition [11]: Active

SMILES: Oc1ccnc2ccccc12
- inhibition [14]: inactive
- inhibition [13]: inactive
- inhibition [15]: inactive
- inhibition [16]: inactive
- inhibition [17]: inactive

SMILES: O=c1cc[nH]c2cc(O)ccc12
- MIC [1]: > 1000 µM
- inhibition [2]: Active
- inhibition [3]: inactive
- Ki [4]: 510 µM
- inhibition [5]: Active
- inhibition [13]: inactive
- Activity [6]: inactive
- Ki [7]: 55 µM
- inhibition [8]: Active
- Ki [9]: 89 µM
- inhibition [11]: Active
- inhibition [17]: inactive
